Laboratory results: PMC12323621, “Exploring the antimicrobial activity of pantothenamides against uropathogenic Escherichia coli” (Microbiology Spectrum, 2025)
Read-outs that look alike come from different tables or passages of the source. Blank lines part the entries; values can stand above or below the molecule they belong to.

Experiments:
[1] = Stability in mouse plasma; type: in vitro ADME
Description: (§1) Stability studies were conducted in mouse liver microsomes, mouse liver tissue homogenate, and CD1 mouse plasma as previously described with minor modifications ([54][–][56]). Briefly, for Phase I mouse liver microsome stability, reactions were carried out with 200 mM potassium phosphate buffer, pH 7.4, with or without an NADPH-regenerating system (1.3 mM NADPH, 3.3 mM glucose 6-phosphate, 3.3 mM MgCl2, 0.4 U/mL glucose-6-phosphate dehydrogenase, and 50 µM sodium citrate). Reactions, in triplicate, were initiated by the addition of liver microsomes to the incubation mixture (compound final concentration was 1 µM; 0.2 mg/mL microsomes) and incubated at 37°C for the desired incubation time. For liver stability, the tissue homogenate was prepared by washing tissues with diluted 10-fold 0.1 M potassium phosphate buffer and homogenized using a probe sonicator over ice. To evaluate the stability of the drugs over time, each of the crude homogenates was aliquoted to 1 mL and then spiked with a final assay concentration of 10 µM of each drug, followed by incubation in an orbital shaker at 37°C for 1 h (in triplicate). For plasma stability, 1 mL of plasma was spiked with 10 µM of each drug, followed by incubation in an orbital shaker at 37°C for 1 h (in triplicate). Samples from each metabolism study were quenched with 3× volume of acetonitrile containing internal standard (losartan: 0.5 µM) at the desired incubation times. […] Samples were vortex-mixed for 30 s and centrifuged at 10,000 × g for 10 min at 4°C. Compound disappearance over time was monitored using a Dionex ultra-high-performance liquid chromatography system consisting of an analytical pump and an autosampler coupled with Q Exactive Focus orbitrap mass spectrometer (Thermo Fisher Scientific Inc., Waltham MA). […] The mobile phase used was composed of 0.1% formic acid in water and 0.1% formic acid in acetonitrile with gradient elution. The total run time for each analyte was 5 min.
(§2) The mass spectrometer was operated with a HESI ion source in positive ionization mode where compounds were identified in the full scan mode (from m/z 75.00–1125.00) and controlled by the Xcalibur software 4.0.27.13 (Thermo Scientific). Data were acquired using Xcalibur software. Drugs were identified in the full-scan mode (from m/z 75.00 to 1125.00) by comparing t = 0 samples with t = 30 or 60 min samples, and structures were proposed based on the accurate mass information. The percentage of compound remaining for pantothenamides 1, 6, and 7 was determined from the analyte/internal standard (IS) area ratios obtained at t = 30 or 60 min relative to the mean ratios obtained at t = 0 min and calculated using equation 1:
(§3) % Remaining=(Peak area of Analyte/Preak area of ISat t=30 or 60 min/MeanPeak area of Analyte/Peak area of ISat t=0 min)×100

UPEC strain CFT073 [2] = assay: Antimicrobial susceptibility assay, UPEC grown in MOPS-glycerol; type: cell-based, Escherichia coli; settings: for MIC: Escherichia coli; for MIC / MIC MOPS-glycerol: UPEC CFT073 grown in MOPS-glycerol, 24 h, ± standard error; for fold increase in MIC (less potent) compared with 1 / activity against UPEC, highest concentration without activity: MOPS-glycerol
Excerpt: (§4) Unless otherwise noted, all reagents were obtained from commercial sources. BAP, 1, and N5-Pan analogs were synthesized according to previously reported procedures ([31], [53]). Urine was self-collected from adult males and females (not menstruating) between 24 and 57 years old (recruitment was open to donors 18–65 years old), who had not used anti-infectives or cranberry products for at least 7 days prior to collection. The collection protocol was approved by the Johns Hopkins University Institutional Review Boards under IRB study NA_00085130. Informed, written consent was obtained from all participants prior to collection. Urine was collected from at least 7 participants over 14 days, stored at 4°C upon collection, and then pooled, filter-sterilized, and frozen at −20°C. Urine Batch A included five male and three female donors with an average age of 33 years (range: 24–57). Urine Batch B included four male and five female donors with an average age of 26 years (range: 24–43). Samples from two donors (donations made at least 30 days apart) were included in both Batch A and Batch B. Urine Batch C included four male and three female donors with an average age of 27 years (range: 24–36). Urine Batch D included four male and three female donors with an average age of 27 years (range: 25–35). Solid urine agar plates were prepared by supplementing cooled 1.5% (wt/vol) agar with filter-sterilized urine in a 4:1 ratio. Liquid MOPS-glycerol was prepared by adding 10 × 3-(N-morpholino)propanesulfonic acid (MOPS) Buffer (Teknova) to water to a final 1× concentration, 1.32 mM K2HPO4, and 0.4% (vol/vol) glycerol and then filter-sterilizing. Unless otherwise noted, all media were supplemented with freshly prepared 20 µM FeSO4. OD600 analyses were performed on Mettler-Toledo UV5Bio UV/Visible spectrophotometer (Columbus, Ohio, USA). For antimicrobial studies, uropathogenic E. coli strain CFT073 (ATCC: BAA-2503) was provided by Kevin Schwartz from the lab of Rodney Welch. All manipulation of UPEC was conducted in a certified biosafety level 2 (BSL-2) laboratory while using BSL-2-associated safety procedures. Antimicrobial data were collected on a Biotek Epoch 2 microplate reader or a Biotek Synergy Neo 2 microplate reader. For metabolic stability studies, losartan potassium (PHR1602), used as an internal standard, was bought from Millipore Sigma (Burlington, MA). Methanol (A456-4) and acetonitrile (A955-4) were purchased from Fisher Chemical (Pittsburgh, PA). Water (9831-03) was purchased from JT Baker (Philipsburg, NJ). Dimethyl sulfoxide (DMSO)(154938-500mL) was purchased from Sigma Aldrich (St. Louis, MO). Mouse plasma (WT) was purchased from Innovative Research (Novi, MI). Mouse liver microsomes (M1000) were purchased from XenoTech LLC (Kansas City, KS).
(§5) All antimicrobial susceptibility assays were conducted as previously described using an aseptic technique with some modification ([7]). Briefly, 3–5 isolated colonies of CFT073 on LB agar or pooled urine agar were inoculated into 3 mL of liquid MOPS-glycerol medium or pooled urine, respectively, and grown overnight with shaking at 37°C. Saturated cultures were diluted 1:50 in fresh medium and grown to an OD600 of 0.4. These exponential phase cultures were then diluted 1:1,000 into fresh medium to yield the experimental inoculum, which was mixed 1:1 with medium containing 1 or N5-Pan analog at twice the desired final concentration in 96-well plates. The final concentration of bacteria in each well was approximately 10^5 CFU/mL in a final volume of 200 µL. The concentration ranges of compounds evaluated in MOPS-glycerol were: 1 (0–312.5 μM), 2 (0–100 μM), 3 (0–500 μM), 4–5 (0–2,000 μM), 6–7 (0–100 μM), and 8–12 (0-2,000 μM). Analogs 1, 6, and 7 were evaluated over a range of 0–4,000 μM in four batches of pooled human urine. The OD600 was monitored for 24 h (MOPS-glycerol) or 16 h (pooled urine) at 37°C with periodic shaking. […]

serum pantetheinases = settings: cited from earlier work
UPEC strain CFT073 [3] = assay: Antimicrobial susceptibility assay, UPEC grown in pooled human urine; type: cell-based, Escherichia coli
Excerpt: as §4, §5

[4] = Stability in mouse liver homogenate; type: in vitro ADME
Description: as §1, §2, §3

[5] = Phase I metabolic stability in mouse liver microsomes; type: in vitro ADME; settings: for remaining at 1 h, 1 µM: mouse, liver microsomes, pH 7.4, 1 h, 1 µM compound, 0.2 mg/mL microsomes
Description: as §1, §2, §3

UTI = system: UTI; design: method as in PMID 38376151; settings: in vivo ascending UTI prophylaxis model; cited from earlier work
E. coli = system: E. coli; design: method as in PMID 29332383; settings: cited from earlier work

remaining at 1 h, 10 µM ([1]; CD1, mouse, plasma, 1 h, 10 µM compound, 37°C): 93%
stability in mouse plasma ([1]; n = 3): good stability
MIC (UPEC strain CFT073 [2]): 12.5 µM
MIC MOPS-glycerol (UPEC strain CFT073 [2]): 12.5 ± 0.00 µM
MIC (UPEC strain CFT073 [3]; Escherichia coli, UPEC CFT073, all urine batches A-D, read-out: MIC across four batches of pooled urine): ≥ 4000 µM
MIC (UPEC strain CFT073 [3]; UPEC CFT073, urine batch A, read-out: MIC in pooled human urine, urine batch A): > 4000 µM
MIC (UPEC strain CFT073 [3]; UPEC CFT073, urine batch B, read-out: MIC in pooled human urine, urine batch B): 4000 µM
% remaining in mouse liver homogenate ([4]; 1 h, 10% wt/vol homogenate, 10 µM compound, 37°C): no degradation
stability in mouse liver homogenate ([4]; n = 3): good stability
remaining at 1 h, 1 µM ([5]; with NADPH, read-out: % remaining in mouse liver microsomes, presence of NADPH): 87%
remaining at 1 h, 1 µM ([5]; without NADPH, read-out: % remaining in mouse liver microsomes, absence of NADPH): 87%
stability in mouse liver microsomes ([5]; n = 3): good stability
Structure (SMILES): CCCCCC(=O)NCCNC(=O)[C@H](O)C(C)(C)CO [compound 7]
stability in the presence of serum pantetheinases (serum pantetheinases): stable

Structure (SMILES): CCCCOP(=O)(O)C(C)=O [BAP, butylacetylphosphonate]
protection of mice against UTI (UTI): partially protects

MIC (UPEC strain CFT073 [2]): > 2000 µM
Structure (SMILES): CN(Cc1cccnc1)C(=O)CCNC(=O)[C@H](O)C(C)(C)CO [compound 12]

MIC (UPEC strain CFT073 [2]): 26 µM
fold increase in MIC (less potent) compared with 1 (UPEC strain CFT073 [2]): ~ 10 fold
MIC MOPS-glycerol (UPEC strain CFT073 [2]): 26 ± 5 µM
Structure (SMILES): CCCCCCCNC(=O)CCNC(=O)[C@H](O)C(C)(C)CO [compound 3]

Structure (SMILES): CCCCCCCN(C)C(=O)CCNC(=O)[C@H](O)C(C)(C)CO [compound 5, N-methyl N7-Pan]
activity against E. coli (E. coli): inactive
MIC (UPEC strain CFT073 [2]): > 2000 µM
activity against UPEC, highest concentration without activity (UPEC strain CFT073 [2]): similarly inactive
pantetheinase resistance (serum pantetheinases): pantetheinase-resistant

MIC (UPEC strain CFT073 [2]): 68 µM
fold increase in MIC (less potent) compared with 1 (UPEC strain CFT073 [2]): ~ 28 fold
MIC MOPS-glycerol (UPEC strain CFT073 [2]): 68 ± 32 µM
Structure (SMILES): CC(C)(CO)[C@@H](O)C(=O)NCCC(=O)NCc1ccccn1 [compound 8]

MIC (UPEC strain CFT073 [2]): 4 µM
MIC MOPS-glycerol (UPEC strain CFT073 [2]): 4 ± 1 µM
Structure (SMILES): CCCCNC(=O)CCNC(=O)[C@H](O)C(C)(C)CO [compound 2]

MIC (UPEC strain CFT073 [2]): 2000 µM
Structure (SMILES): CC(C)(CO)[C@@H](O)C(=O)NCCC(=O)NCc1cccnc1 [compound 9]

MIC (UPEC strain CFT073 [2]): > 2000 µM
Structure (SMILES): CCCCCN(C)C(=O)CCNC(=O)[C@H](O)C(C)(C)CO [compound 4, N-methyl N5-Pan]
activity against UPEC, highest concentration without activity (UPEC strain CFT073 [2]): > 2 mM

MIC (UPEC strain CFT073 [2]): > 2000 µM
Structure (SMILES): CC(C)(CO)[C@@H](O)C(=O)NCCC(=O)NCc1ccncc1 [compound 10]

MIC (UPEC strain CFT073 [2]): > 2000 µM
Structure (SMILES): CC(NC(=O)CCNC(=O)[C@H](O)C(C)(C)CO)c1cccnc1 (some centres unmarked) [compound 11]
